What is called pEC50 is the EC50 on a negative log10 scale, so that one unit is a factor of ten.

Results on 2 molecules are retold here after patent US20100240656A1, “COMPOUNDS AS HSP90 INHIBITORS” (ORYZON GENOMICS, S.A., priority 2007, published 2010).

One experiment concerns A-549. Briefly: Cell proliferation by MTT method, A-549. It is filed as cell-based. As to conditions: Homo sapiens. As to the method: The objective of this study was to determine the influence of the compounds on cell proliferation of K-562, A-549, MCF-7, HeLa, WI-38 by MTT method. The compounds were tested over a three-fold dilution series in triplicate for the determination of EC50 of their influence on cell proliferation.
The assay is based on the cleavage of the yellow tetrazolium salt MTT into purple formazan by metabolically active cells. The MTT formazan crystals are insoluble in aqueous solution, but may be solubilized by adding the 10% SDS, then incubating the plates overnight in a humidified atmosphere (e.g., 37° C., 5% CO2). The solubilized formazan product can be photometrically quantitated using Tecan reader. An increase in the number of living cells results in an increase of total metabolic activity, which leads to a stronger color formation.
EC50 values are defined as the compound concentration at which 50% of reaction product is formed.
Test compounds were dissolved to 10 mM in 100% DMSO.
In the day of the experiment cells were seeded into all wells of 96-well plates. Serial dilution of compounds was performed in a separate 96-well plate at 20 times final assay concentration in cell culture medium (DMEM with 10% Fetal Bovine Serum). 5 μl of compound was transferred to 96-well plate containing seeded cells in cell culture medium (final total volume=100 μl). Cells were cultured in the presence of the respective test substances in the 96-well plate at 37° C. in a humidified 5% CO2 incubator for a certain period of time (24, 72 or 120 hours). Then 5 μL of thiazolyl blue tetrazolium bromide (MTT) 5 mg/mL was added to the cells and the cells were reincubated 4 hours in a humidified 5% CO2 incubator. Then 10% SDS was added into the each well. The reaction product was quantified by measuring the absorbance at 568 nm using a scanning multiwell spectrophotometer Tecan. The developed color and thereby the absorbance values directly correlate to the number of the living cells.
The data were analyzed using Microsoft Excel 2000, GraphPad Prism 3.03.
K 562 (human, chronic myelongenous leukemia), A 549 (human, lung carcinoma), MCF-7 (human, breast adenocarcinoma), Hela (human, cervix, carcinoma, epitheloid), WI-38 (human, embryonic lung)

The next experiment deals with HCT-116. Briefly: Cell growth inhibition by AlamarBlue method, HCT-116. Format: cell-based. As to conditions: Homo sapiens; HCT-116, 72 hours; read-out: Cell growth inhibition values (EC50) obtained with AlamarBlue method. On the procedure:
The human colon cancer cell line HCT-116 and the human breast cell lines MCF-7 and SKBr3 were from the American Type Culture Collection (ATCC; CCL-247, HTB-22 and HTB-30, respectively).
The HCT-116 and SKBr3 cell lines were maintained in DMEM GlutaMAX (Invitrogen) supplemented with 10% fetal calf serum and the MCF-7 cell line was maintained in RPMI1640 GlutaMAX (Invitrogen) containing 1 mM sodium pyruvate and 10% fetal calf serum. Cells were grown in a humidified incubator at 37° C. in 5% CO2
Cells were plated in 96-well plates (Costar, 3596) at a density of 6000 cells/well in 50 μL medium 24 h before addition of the compounds. Compounds were then added in 8 concentrations, each in triplicate (dilution series of 1 to 3). To do so, a compound-dilution plate at 200× the screening concentrations was prepared in DMSO 100% (Sigma, 154938). Then, 1.7 μL of the 200× diluted compounds were transferred to a new plate and 170 μL of media were added and mixed with the pipette (plate at 2×). Columns 11 and 12 of this plate (controls) were filled with 1% DMSO in cell media (i.e. 1.7 μL DMSO and 170 μL cell media). Finally, 50 μL of this intermediate plate at 2× were transferred to the plate containing the seeded cells and slowly shaken manually. Cells were grown as described above. AlamarBlue viability assay (Biosource, Invitrogen, DAL1100) was performed 72 hours later following manufacturer's protocol. In brief, AlamarBlue diluted in media was added to cells to have a 5% solution (a 2× solution was prepared in media and 100 μL of this solution were transferred to each well, i.e. final volume of 200 μL). Cells were incubated at 37° C., 3 hours and at room temperature for an additional 30 min. Cells with no compound and, cells with no compound and lysed with triton X-100 (30 μL/well added 10 min before treatment with AlamarBlue) were used as controls (6 replicates of each). Fluorescence was monitored at 530 nm excitation and 590 nm emission wavelengths. Results were quantified using ELx800 Universal Microplate Reader (Bio-Tek Instruments, Inc.). EC50 were calculated as the dose of compound required to inhibit cell growth by 50%.
(Alamar Blue is a resazurin reagent that responds to reducing activity.)

Where [1] appears, read: A549, 24 h, A 549, incubation 1 day.
Setting [2] is: A549, 72 h, A 549, incubation 3 days.
The mark [3] stands for this setting: A549, 120 h, A 549, incubation 5 days.

pEC50: −log10 of the molar value.

`NCCCCCn1c(Sc2cc3c(cc2I)OCO3)nc(C(N)=O)c1N` [Example 6, 5-amino-1-(5-amino-pentyl)-2-(6-iodo-benzo[1,3]dioxol-5-ylsulfanyl)-1H-imidazole-4-carboxamide]: the pEC50 with A-549 (setting [1]) was below 4.00; with A-549 (setting [2]), 4.62; with A-549 (setting [3]), 4.83; in the experiment on HCT-116 it was 4.63.

As for `CCCCn1c(Sc2cc3c(cc2I)OCO3)nc(C(N)=O)c1N` [Example 10, 5-amino-1-butyl-2-(6-iodo-benzo[1,3]dioxol-5-ylsulfanyl)-1H-imidazole-4-carboxamide], the pEC50 was below 4.00 with A-549 (setting [1]), 4.88 with A-549 (setting [2]), 4.79 with A-549 (setting [3]) and 4.74 in the experiment with HCT-116.
